Results: US10206394B2, “Herbicidal compounds” (Syngenta Participations AG, priority 2014, dated 2019)
Read-outs that look alike come from different tables or passages of the source.

Assays:
Assay in all cases: Glasshouse assay for herbicidal activity (pre- and post-emergence), percentage phytotoxicity
Format in all cases: in vivo
Lolium perenne (LOLPE) = conditions: Lolium perenne, Rate 250 g/ha, 100%=total damage, 0%=no damage
Experimental: (§1) Test—Glasshouse Assay for Herbicidal Activity
(§2) Seeds of a variety of monocotyledonous and dicotyledonous test plants are sown in standard soil in pots. The plants are cultivated for one day (for pre-emergence (PRE)) or for about 12 days (for post-emergence (POST)) under controlled conditions in a glasshouse (warm climate species at 24/18° C., cool climate species at 20/16° C., both at day/night; 16 hours light; 65% humidity).
(§3) The test plants are then grown on, in a glasshouse (greenhouse) under controlled conditions (warm climate species at 24/18° C., cool climate species at 20/16° C., both at day/night; 16 hours light; 65% humidity) and are watered twice daily. 15 days after application of the test herbicide (15 DAA) (for post-emergence), and 20 days after application of the test herbicide (20 DAA) (for pre-emergence), the test plants are evaluated visually, and an assessed percentage phytotoxicity score is given for each herbicidal application on each plant species (with 100%=total damage to plant; 0%=no damage to plant).
(§4) The plant species tested are as follows: Alopecurus myosuroides (ALOMY), Avena fatua (AVEFA), Lolium perenne (LOLPE), Echinochloa crus-galli (ECHCG).

[1] = system: Echinochloa crus-galli (ECHCG); conditions: Echinochloa crus-galli, Rate 250 g/ha, 100%=total damage, 0%=no damage
Experimental: as §1, §2, §3, §4

[2] = system: Alopecurus myosuroides (ALOMY); conditions: Alopecurus myosuroides, Rate 250 g/ha, 100%=total damage, 0%=no damage
Experimental: as §1, §2, §3, §4

Avena fatua (AVEFA) = conditions: Avena fatua, Rate 250 g/ha, 100%=total damage, 0%=no damage
Experimental: as §1, §2, §3, §4

[3] = post-emergence, 360 h, post-emergence, assessed visually 15 DAA, read-out: Post-emergence herbicidal activity (percentage phytotoxicity) LOLPE POST
[4] = pre-emergence, 480 h, pre-emergence, assessed visually 20 DAA, read-out: Pre-emergence herbicidal activity (percentage phytotoxicity) LOLPE PRE
[5] = post-emergence, 360 h, post-emergence, assessed visually 15 DAA, read-out: Post-emergence herbicidal activity (percentage phytotoxicity) ECHCG POST
[6] = pre-emergence, 480 h, pre-emergence, assessed visually 20 DAA, read-out: Pre-emergence herbicidal activity (percentage phytotoxicity) ECHCG PRE
[7] = post-emergence, 360 h, post-emergence, assessed visually 15 DAA, read-out: Post-emergence herbicidal activity (percentage phytotoxicity) ALOMY POST
[8] = pre-emergence, 480 h, pre-emergence, assessed visually 20 DAA, read-out: Pre-emergence herbicidal activity (percentage phytotoxicity) ALOMY PRE
[9] = post-emergence, 360 h, post-emergence, assessed visually 15 DAA, read-out: Post-emergence herbicidal activity (percentage phytotoxicity) AVEFA POST
[10] = pre-emergence, 480 h, pre-emergence, assessed visually 20 DAA, read-out: Pre-emergence herbicidal activity (percentage phytotoxicity) AVEFA PRE

What does the source list for Cc1cc(C)c(C2C(=O)CC(CC(=O)NCc3ccc(OC(F)(F)F)cc3)C2=O)c(C)c1 (stereo not drawn) [Compound A92]?
pest or weed control at 250 g/ha (Lolium perenne (LOLPE); [3]): 40%; pest or weed control at 250 g/ha (Lolium perenne (LOLPE); [4]): 90%; pest or weed control at 250 g/ha [1, 5]: 80%; pest or weed control at 250 g/ha [1, 6]: 80%; pest or weed control at 250 g/ha [2, 7]: 60%; pest or weed control at 250 g/ha [2, 8]: 70%; pest or weed control at 250 g/ha (Avena fatua (AVEFA); [9]): 70%; pest or weed control at 250 g/ha (Avena fatua (AVEFA); [10]): 60%

What does the source list for Cc1cc(C)c(C2C(=O)CC(CC(=O)NC(C)c3ccc(F)cc3)C2=O)c(C)c1 (stereo not drawn) [Compound A93]?
pest or weed control at 250 g/ha (Lolium perenne (LOLPE); [3]): 80%; pest or weed control at 250 g/ha (Lolium perenne (LOLPE); [4]): 90%; pest or weed control at 250 g/ha [1, 5]: 70%; pest or weed control at 250 g/ha [1, 6]: 60%; pest or weed control at 250 g/ha [2, 7]: 100%; pest or weed control at 250 g/ha [2, 8]: 90%; pest or weed control at 250 g/ha (Avena fatua (AVEFA); [9]): 40%; pest or weed control at 250 g/ha (Avena fatua (AVEFA); [10]): 20%

For C=CCCNC(=O)CC1CC(=O)C(c2c(C)cc(C)cc2C)C1=O (stereo not drawn) [Compound A94], which pest or weed control at 250 g/ha (Lolium perenne (LOLPE); [4]) is on record?
Its pest or weed control at 250 g/ha is 90%.

What about the pest or weed control at 250 g/ha [1, 5] of the same compound?
Its pest or weed control at 250 g/ha is 80%.

What about the pest or weed control at 250 g/ha [1, 6] of the same compound?
The pest or weed control at 250 g/ha was 60%.

What about the pest or weed control at 250 g/ha [2, 8] of the same compound?
Its pest or weed control at 250 g/ha is 90%.

What about the pest or weed control at 250 g/ha (Avena fatua (AVEFA); [10]) of the same compound?
Its pest or weed control at 250 g/ha is 20%.

Cc1cc(C)c(C2C(=O)CC(CC(=O)NCc3cccc(Cl)c3)C2=O)c(C)c1 (stereo not drawn) [Compound A96] was tested. Which pest or weed control at 250 g/ha (Lolium perenne (LOLPE); [3]) did it give?
Its pest or weed control at 250 g/ha is 100%.

What about the pest or weed control at 250 g/ha (Lolium perenne (LOLPE); [4]) of the same compound?
The pest or weed control at 250 g/ha was 100%.

What about the pest or weed control at 250 g/ha [1, 5] of the same compound?
The pest or weed control at 250 g/ha was 80%.

What about the pest or weed control at 250 g/ha [1, 6] of the same compound?
The pest or weed control at 250 g/ha was 100%.

What about the pest or weed control at 250 g/ha [2, 7] of the same compound?
The pest or weed control at 250 g/ha was 80%.

And the pest or weed control at 250 g/ha [2, 8]?
The pest or weed control at 250 g/ha was 100%.

And the pest or weed control at 250 g/ha (Avena fatua (AVEFA); [9])?
Its pest or weed control at 250 g/ha is 80%.

What about the pest or weed control at 250 g/ha (Avena fatua (AVEFA); [10]) of the same compound?
The pest or weed control at 250 g/ha was 70%.

Which pest or weed control at 250 g/ha (Lolium perenne (LOLPE); [3]) does the source give for Cc1cc(C)c(C2C(=O)CC(CC(=O)NCc3ccc(C)o3)C2=O)c(C)c1 (stereo not drawn) [Compound A97] here?
Its pest or weed control at 250 g/ha is 70%.

What about the pest or weed control at 250 g/ha (Lolium perenne (LOLPE); [4]) of the same compound?
Its pest or weed control at 250 g/ha is 90%.

What about the pest or weed control at 250 g/ha [1, 5] of the same compound?
Its pest or weed control at 250 g/ha is 0%.

What about the pest or weed control at 250 g/ha [1, 6] of the same compound?
Its pest or weed control at 250 g/ha is 0%.

What about the pest or weed control at 250 g/ha [2, 7] of the same compound?
Its pest or weed control at 250 g/ha is 70%.

What about the pest or weed control at 250 g/ha [2, 8] of the same compound?
Its pest or weed control at 250 g/ha is 30%.

What about the pest or weed control at 250 g/ha (Avena fatua (AVEFA); [9]) of the same compound?
Its pest or weed control at 250 g/ha is 20%.

What about the pest or weed control at 250 g/ha (Avena fatua (AVEFA); [10]) of the same compound?
Its pest or weed control at 250 g/ha is 0%.

Which results are given for Cc1cc(C)c(C2C(=O)CC(CC(=O)NCc3ccc(C(F)(F)F)nc3)C2=O)c(C)c1 (stereo not drawn) [Compound A98]?
pest or weed control at 250 g/ha (Lolium perenne (LOLPE); [3]): 80%; pest or weed control at 250 g/ha (Lolium perenne (LOLPE); [4]): 80%; pest or weed control at 250 g/ha [1, 5]: 60%; pest or weed control at 250 g/ha [1, 6]: 80%; pest or weed control at 250 g/ha [2, 7]: 90%; pest or weed control at 250 g/ha [2, 8]: 100%; pest or weed control at 250 g/ha (Avena fatua (AVEFA); [9]): 90%; pest or weed control at 250 g/ha (Avena fatua (AVEFA); [10]): 20%

Which results are given for Cc1cc(C)c(C2C(=O)CC(CC(=O)NCc3ccoc3)C2=O)c(C)c1 (stereo not drawn) [Compound A99]?
pest or weed control at 250 g/ha (Lolium perenne (LOLPE); [3]): 70%; pest or weed control at 250 g/ha (Lolium perenne (LOLPE); [4]): 20%; pest or weed control at 250 g/ha [1, 5]: 0%; pest or weed control at 250 g/ha [1, 6]: 0%; pest or weed control at 250 g/ha [2, 7]: 60%; pest or weed control at 250 g/ha [2, 8]: 20%; pest or weed control at 250 g/ha (Avena fatua (AVEFA); [9]): 30%; pest or weed control at 250 g/ha (Avena fatua (AVEFA); [10]): 0%

How did the pest or weed control at 250 g/ha (Lolium perenne (LOLPE); [3]) turn out when Cc1cc(C)c(C2C(=O)CC(CC(=O)NCc3nc4ccccc4s3)C2=O)c(C)c1 (stereo not drawn) [Compound A100] was run?
The pest or weed control at 250 g/ha was 70%.

And the pest or weed control at 250 g/ha (Lolium perenne (LOLPE); [4])?
Its pest or weed control at 250 g/ha is 80%.

And the pest or weed control at 250 g/ha [1, 5]?
Its pest or weed control at 250 g/ha is 20%.

And the pest or weed control at 250 g/ha [1, 6]?
Its pest or weed control at 250 g/ha is 20%.

And the pest or weed control at 250 g/ha [2, 7]?
Its pest or weed control at 250 g/ha is 70%.

What about the pest or weed control at 250 g/ha [2, 8] of the same compound?
Its pest or weed control at 250 g/ha is 90%.

And the pest or weed control at 250 g/ha (Avena fatua (AVEFA); [9])?
The pest or weed control at 250 g/ha was 0%.

And the pest or weed control at 250 g/ha (Avena fatua (AVEFA); [10])?
Its pest or weed control at 250 g/ha is 0%.

How did the pest or weed control at 250 g/ha (Lolium perenne (LOLPE); [3]) turn out when Cc1ccc(/C=C/C2(NC(=O)CC3CC(=O)C(c4c(C)cc(C)cc4C)C3=O)CC2)cc1 (stereo not drawn) [Compound A101] was run?
Its pest or weed control at 250 g/ha is 40%.

What about the pest or weed control at 250 g/ha [1, 5] of the same compound?
Its pest or weed control at 250 g/ha is 20%.

What about the pest or weed control at 250 g/ha [2, 7] of the same compound?
Its pest or weed control at 250 g/ha is 10%.

And the pest or weed control at 250 g/ha (Avena fatua (AVEFA); [9])?
Its pest or weed control at 250 g/ha is 0%.

What does the source list for Cc1cc(C)c(C2C(=O)CC(CC(=O)NC3CCC(C)CC3C)C2=O)c(C)c1 (stereo not drawn) [Compound A103]?
pest or weed control at 250 g/ha (Lolium perenne (LOLPE); [3]): 20%; pest or weed control at 250 g/ha [1, 5]: 20%; pest or weed control at 250 g/ha [2, 7]: 60%; pest or weed control at 250 g/ha (Avena fatua (AVEFA); [9]): 10%
